Data: patent US20140163061A1, “Methods For Reducing Blood Pressure” (FibroGen, Inc., priority 2008, published 2014)

Test system: Nx rats (5/6 nephrectomy, hypertensive chronic kidney disease)
Assay: Nx rats treated with various HIF prolyl hydroxylase inhibitors, change in systolic blood pressure after four weeks, Example 4
Assay type: in vivo, rat
Experimental: A characteristic pathophysiology found in the uremic chronic kidney disease (CKD) population is hypertension. […] (Priyadarshi et al. (2002) Kidney Int 61:542-546; Coleman et al. (2006) Proc Natl Acad Sci USA 103:5965-5970.) The surgical procedure used to generate the rat remnant kidney was performed according to modification of the procedure described by Priyadarshi et al. (supra) or according to modification of the procedure described by Tanaka et al. (2005, Lab Invest 85:1292-1307). Separate studies used either male Sprague Dawley rats (280-300 g) or female Wistar rats (220-250 g).
Animals were divided into two groups of which one group (sham) underwent sham surgery and the other group (Nx) was subjected to 5/6 nephrectomy as follows. Animals were anesthetized under isoflurane, and a midline abdominal incision was made, followed by blunt dissection of the renal pedicles. Two or three branches of the left renal artery were ligated to infarct two thirds of the left kidney, while the right kidney underwent simultaneous nephrectomy. The infarct was verified by observing the change in kidney color. Animal body temperature was maintained constant, and warm (˜37° C.) saline (1.0 mL) was administered directly into the abdomen. Thereafter, the incision was sutured and the animal was allowed to recover and have free access to regular food and water. Animal body weight and mortality were closely monitored.
Starting 35 days after surgery, Nx and sham animals were randomly divided into groups and treated with either vehicle or compound A. Compound was dosed three times per week by oral gavage at 20 or 40 mg/kg compound per dose. Blood pressure (BP) was measured using a Kent XBP1000 system (Kent Scientific Corp., Torrington, Conn.) or a Muromachi tail-cuff blood pressure system (Muromachi Kikai Co., Ltd., Tokyo, Japan), both having volume/pressure recording technology and used according to the manufacturer's instruction. Rats were slightly warmed under a lamp and conditioned carefully before the measurement. BP was recorded as the mean value of 3 separate measurements obtained at each session and reported herein as mean±SEM. Results are compared using 1-way analysis of variance (ANOVA) and Student-Newman-Keuls method (SigmaStat, SPSS Science, Chicago, Ill.).
In another series of experiments, rats subjected to 5/6 nephrectomy were treated 35 days after surgery according to the dosing schedule described in Example 3 above with a HIF prolyl hydroxylase inhibitor. Individual compound selected from the group consisting of compounds A and C-K were administered by oral gavage at 8, 20, 30, or 40 mg/kg (see Table 1 and Table 2). Systolic blood pressure was recorded at day 35 (baseline) and again immediately following the last dose of compound. Table 1 and Table 2 show changes in systolic blood pressure following four weeks of oral administration of various compounds of the present invention to Nx rats.

Structure (SMILES)	SBP (mmHg) Change from Vehicle (8 mg/kg oral) [mmHg]	SBP (mmHg) Change from Vehicle (20 mg/kg oral) [mmHg]	also measured
CC(C)Oc1ccc2c(O)c(C(=O)NCC(=O)O)nc(C#N)c2c1 [Compound D, [(1-cyano-4-hydroxy-7-isopropoxy-isoquinoline-3-carbonyl)-amino]-acetic acid]	−12.4	−24.73	SBP (mmHg) Change from Baseline (8 mg/kg oral): −22.14 mmHg; SBP (mmHg) Change from Baseline (20 mg/kg oral): −9.25 mmHg
N#Cc1nc(C(=O)NCC(=O)O)c(O)c2ccn(Cc3ccc4ccccc4c3)c12 [F, [(7-cyano-4-hydroxy-1-naphthalen-2-ylmethyl-1H-pyrrolo[2,3-c]pyridine-5-carbonyl)-amino]-acetic acid]	−23.88	–	SBP (mmHg) Change from Baseline (8 mg/kg oral): −10.58 mmHg
COc1cccc(Cn2ccc3c(O)c(C(=O)NCC(=O)O)nc(C#N)c32)c1 [E, {[7-cyano-4-hydroxy-1-(3-methoxy-benzyl)-1H-pyrrolo[2,3-c]pyridine-5-carbonyl]-amino}-acetic acid]	–	−18.55	SBP (mmHg) Change from Baseline (20 mg/kg oral): −7.12 mmHg
N#Cc1nc(C(=O)NCC(=O)O)c(O)c2c(Oc3ccccc3)cccc12 [I, [(1-cyano-4-hydroxy-5-phenoxy-isoquinoline-3-carbonyl)-amino]-acetic acid]	–	−11.00	–
COc1ccc(Cn2c(Cl)c(Cl)c3c(O)c(C(=O)NCC(=O)O)nc(C#N)c32)cc1 [H, {[2,3-dichloro-7-cyano-4-hydroxy-1-(4-methoxy-benzyl)-1H-pyrrolo[2,3-c]pyridine-5-carbonyl]-amino}-acetic acid]	–	−15.73	–
Cc1cccc(C)c1Oc1ccc2c(O)c(C(=O)NCC(=O)O)nc(C#N)c2c1 [J, {[1-cyano-7-(2,6-dimethyl-phenoxy)-4-hydroxy-isoquinoline-3-carbonyl]-amino}-acetic acid]	−2.66	–	–
COc1ccc(Cn2cc(Br)c3c(O)c(C(=O)NCC(=O)O)nc(C#N)c32)cc1 [K, {[3-bromo-7-cyano-4-hydroxy-1-(4-methoxy-benzyl)-1H-pyrrolo[2,3-c]pyridine-5-carbonyl]-amino}-acetic acid]	−19.92	–	–
N#Cc1nc(C(=O)NCC(=O)O)c(O)c2ccn(Cc3ccccc3F)c12 [G, {[7-cyano-1-(2-fluoro-benzyl)-4-hydroxy-1H-pyrrolo[2,3-c]pyridine-5-carbonyl]-amino}-acetic acid]	−19.27	–	–
COc1ccc(Oc2ccc3c(O)c(C(=O)NCC(=O)O)ncc3c2)cc1 [C, {[4-hydroxy-7-(4-methoxy-phenoxy)-isoquinoline-3-carbonyl]-amino}-acetic acid]	–	–	SBP (mmHg) Change from Baseline (30 mg/kg oral): −13.72 mmHg; SBP (mmHg) Change from Vehicle (30 mg/kg oral): −34.03 mmHg
